Assay results published in patent US20200078363A1, “POST-SURGICAL PAIN TREATMENT” (Heron Therapeutics, Inc., priority 2018, published 2020).

Tested on: post-surgical incisional (post-operative or POP) pain
Assay: Post-operative (POP) pain porcine model, von Frey test
Format: in vivo
Settings: Group 1: IV aprepitant 6 mg/kg once prior to surgery and daily for 5 days after surgery, no other medication; 4 pigs
Description: Example 1 describes three studies conducted to evaluate the capacity to reduce post-surgical incisional (post-operative or POP) pain in a porcine model system. Using a post-operative (POP) pain porcine model system, where a 7 cm long skin and fascia incision was made in the left flank under general anesthesia to pigs, NK-1 receptor antagonist alone or in combination with pain medication (i.e., bupivacaine and meloxicam) were applied to the wound. The skin incision was then closed using sterile sutures. Various methods were evaluated for their capacity to reduce post-surgical incisional (post-operative or POP) pain in a porcine model system. […] All studies described below evaluated 4 pigs per group. Post-operative pain was assessed using the von Frey methodology. […] By alternating the filament thickness, the gram force required to achieve withdrawal reaction was determined and recorded. […] Several studies evaluated emulsion compositions containing aprepitant (diluted 1:7) with saline, administered by intravenous infusion dosed at 6 mg/kg as a slow bolus via an IV catheter in the ear. […] Analgesia was evaluated by response in the von Frey test, as described above. […] By following similar procedures described in Example 1, the analgesic effect of a lower dose of aprepitant (i.e., lower than 6.0 mg/kg) was evaluated. […]

C[C@@H](O[C@H]1OCCN(Cc2n[nH]c(=O)[nH]2)[C@H]1c1ccc(F)cc1)c1cc(C(F)(F)F)cc(C(F)(F)F)c1 [aprepitant]
analgesia, von Frey response (withdrawal force): little analgesic response
